The record followed here is patent US12252524B2, “GIP/GLP1 co-agonist compounds” (Eli Lilly and Company, priority 2018, dated 2025).

In test [1] the target is human GLP-1 receptor (GLP-1R) (Homo sapiens, UniProt P43220). Kind of test: cAMP pharmacological functional assay in presence of casein, hGLP-1R. The settings on record: HEK293 cells expressing hGLP-1R, 0.1% Casein, geometric mean; read-out: hGLP1R cAMP Rel EC50 nM (SEM, n). The test is classed as cell-based.
Test [2] addresses T1, human GLP-1R (Homo sapiens, UniProt P43220). The test can be described thus: GLP-1R CHO cell β-arrestin recruitment assay. The settings on record: for EC50: CHO-K1 cells, PathHunter β-arrestin-2 recruitment, 0.1% casein, read-out: hGLP1R B-Arrestin2 Rel EC50 uM (SEM, n); for hGLP1R B-Arrestin2 % Top: normalized to GLP-1 maximum control. Further details: host or cells: CHO-K1 PathHunter cells, assay-ready frozen. It counts as cell-based. In a few lines:
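Peptide-induced β-arrestin-2 recruitment measured by enzyme-fragment complementation luminescence after 90 min at 37 °C plus 60 min detection at RT.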
(In general: Arrestin recruitment assays detect the binding of arrestin to an activated receptor.)

Test [3] has as its target T2, human Gcg receptor (Homo sapiens, UniProt P47871).
T2 construct: expressed in transfected cells; crude membranes
Kind of test: [125I]-Glucagon binding (SPA), human Gcg receptor. The settings on record: read-out: hGLcgR Ki, nM (SEM, n). In a few lines:
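Crude membranes from cells expressing the receptor, prepared by hypotonic lysis in 50 mM Tris HCl pH 7.5 with protease inhibitors, homogenization and differential centrifugation, were used in a WGA-bead SPA. Binding buffer: 25 mM HEPES pH 7.4, 2.5 mM CaCl2, 1 mM MgCl2, bacitracin, Tween-20.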

Test [4] addresses T1, human GLP-1R. The test can be described thus: GLP-1R HEK293 cell membrane [35S]GTPγS binding assay. It counts as biochemical. The settings on record: HEK293 cell membranes expressing human GLP-1R, [35S]GTPγS binding; read-out: hGLP1R GTPgS Rel EC50 nM (SEM, n). On the set-up: expressed in transfected cells; host or cells: HEK293 cells expressing human GLP-1R; membranes. In a few lines:
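Agonist-driven Gαs activation read as [35S]GTPγS ([…]) binding to receptor-expressing HEK293 membranes, 30 min at room temperature, pH 7.4. Detection by anti-Gαs immunocapture on scintillation beads; EC50 derived from four-parameter logistic concentration-response fit.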

Test [5] addresses T1, human GLP-1R. The test can be described thus: [125I]-GLP-1 binding (SPA), human GLP-1 receptor. Further details: expressed in transfected cells; crude membranes. The settings on record: read-out: hGLP1R Ki, (nM) (SEM, n). Put shortly: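 Membranes: hypotonic lysis (50 mM Tris HCl, pH 7.5, protease inhibitors), Potter-Elvehjem homogenization, high-speed pellet (35000×g 1 h or 25000×g 30 min, 4° C.). Buffer: 25 mM HEPES pH 7.4, 2.5 mM CaCl2, 1 mM MgCl2. Four-parameter IC50 fit; Ki as geometric mean ± SEM.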

Test [6] has as its target T3, gastric inhibitory peptide receptor (GIPR) (Homo sapiens, UniProt P48546).
T3 sequence (P48546 22-466): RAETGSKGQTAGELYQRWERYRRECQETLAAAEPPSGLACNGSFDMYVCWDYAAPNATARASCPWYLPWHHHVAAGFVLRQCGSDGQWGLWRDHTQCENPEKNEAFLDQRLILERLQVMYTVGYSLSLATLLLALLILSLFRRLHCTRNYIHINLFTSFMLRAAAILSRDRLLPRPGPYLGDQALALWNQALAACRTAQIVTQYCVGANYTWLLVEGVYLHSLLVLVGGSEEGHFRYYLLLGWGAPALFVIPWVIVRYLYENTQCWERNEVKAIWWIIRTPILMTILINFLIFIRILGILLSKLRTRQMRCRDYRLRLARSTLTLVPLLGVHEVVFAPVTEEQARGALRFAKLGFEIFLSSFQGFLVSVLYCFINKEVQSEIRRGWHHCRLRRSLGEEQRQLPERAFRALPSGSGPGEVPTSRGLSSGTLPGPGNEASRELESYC
The test can be described thus: cAMP pharmacological functional assay in presence of casein, hGIPR. It counts as cell-based. The settings on record: HEK293 cells expressing hGIPR, 0.1% Casein, geometric mean; read-out: hGIPR cAMP Rel EC50 nM (SEM, n).

The target in test [7] is T4, human GIP receptor (Homo sapiens, UniProt P48546).
T4 construct: expressed in transfected cells; crude membranes
T4 sequence (P48546 22-466): T3 sequence (P48546 22-466)
Kind of test: [125I]-GIP binding (SPA), human GIP receptor. The settings on record: read-out: hGIPR Ki, nM (SEM, n).

Numbered stars: 1 amine (or outer) side, 2 acyl side, 3 side chain; on linkers, the order of the positions; unused ones are H or OH. Square brackets hold non-standard residues; d marks the D form. Side chains are listed from the residue outwards. Peptide text beside a SMILES is read from it. * marks the point of attachment. C20 diacid = O=C(O)CCCCCCCCCCCCCCCCCCC(=O)*; γGlu = O=C(O)[C@H](CCC(=O)[*:2])N[*:1]; αMeL = CC(C)C[C@](C)(N)C(=O)O; AEEA = NCCOCCOCC(=O)O; Aib = CC(C)(N)C(=O)O A value given as a limit tells only on which side of the number the result lay.

human GLP-1 receptor (GLP-1R), sequence (P43220 24-463): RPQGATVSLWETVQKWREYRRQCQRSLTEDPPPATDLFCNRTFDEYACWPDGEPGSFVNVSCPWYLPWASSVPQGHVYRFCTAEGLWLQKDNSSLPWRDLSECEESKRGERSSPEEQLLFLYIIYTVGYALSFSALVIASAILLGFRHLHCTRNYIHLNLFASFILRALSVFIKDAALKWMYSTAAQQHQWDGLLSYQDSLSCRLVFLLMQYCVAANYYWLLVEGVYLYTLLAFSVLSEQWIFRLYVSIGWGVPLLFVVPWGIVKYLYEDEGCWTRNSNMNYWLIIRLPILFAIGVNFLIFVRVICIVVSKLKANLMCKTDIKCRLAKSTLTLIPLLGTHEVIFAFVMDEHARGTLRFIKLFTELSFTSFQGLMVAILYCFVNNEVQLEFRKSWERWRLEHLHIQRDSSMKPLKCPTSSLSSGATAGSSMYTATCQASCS
T1 sequence (P43220 24-463): as above
T2 sequence (P47871 26-477): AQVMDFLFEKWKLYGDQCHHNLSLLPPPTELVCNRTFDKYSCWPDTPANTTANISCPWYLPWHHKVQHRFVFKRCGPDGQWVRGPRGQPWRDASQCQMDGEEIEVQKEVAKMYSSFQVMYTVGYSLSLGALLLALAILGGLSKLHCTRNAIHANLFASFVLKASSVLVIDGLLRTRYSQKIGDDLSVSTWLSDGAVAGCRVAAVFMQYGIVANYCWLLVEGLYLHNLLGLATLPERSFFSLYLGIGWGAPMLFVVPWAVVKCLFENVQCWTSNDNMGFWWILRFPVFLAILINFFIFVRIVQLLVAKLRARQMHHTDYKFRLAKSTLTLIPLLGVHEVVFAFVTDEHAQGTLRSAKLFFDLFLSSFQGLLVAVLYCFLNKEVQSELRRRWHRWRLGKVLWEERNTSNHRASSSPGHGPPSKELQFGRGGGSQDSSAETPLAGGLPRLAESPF

In the case of `CC[C@H](C)[C@H](NC(=O)[C@H](CC(C)C)NC(=O)[C@H](Cc1ccc(O)cc1)NC(=O)[C@H](CCC(=O)O)NC(=O)[C@@H](NC(=O)[C@H](Cc1ccccc1)NC(=O)[C@H](C)NC(=O)C(C)(C)NC(=O)[C@H](CCC(N)=O)NC(=O)[C@H](C)NC(=O)[C@H](CCCCNC(=O)COCCOCCNC(=O)COCCOCCNC(=O)CC[C@H](NC(=O)CCCCCCCCCCCCCCCCCCC(=O)O)C(=O)O)NC(=O)[C@H](CCC(=O)O)NC(=O)[C@H](CC(=O)O)NC(=O)[C@H](CC(C)C)NC(=O)[C@](C)(CC(C)C)NC(=O)[C@@H](NC(=O)[C@H](CO)NC(=O)[C@H](Cc1ccc(O)cc1)NC(=O)[C@H](CC(=O)O)NC(=O)[C@H](CO)NC(=O)[C@@H](NC(=O)[C@H](Cc1ccccc1)NC(=O)[C@@H](NC(=O)CNC(=O)[C@H](CCC(=O)O)NC(=O)C(C)(C)NC(=O)[C@H](N)Cc1ccc(O)cc1)[C@@H](C)O)[C@@H](C)O)[C@@H](C)CC)[C@@H](C)CC)C(=O)N[C@@H](C)C(=O)NCC(=O)NCC(=O)N1CCC[C@H]1C(=O)N[C@@H](CO)C(=O)N[C@@H](CO)C(=O)NCC(=O)N[C@@H](C)C(=O)N1CCC[C@H]1C(=O)N1CCC[C@H]1C(=O)N1CCC[C@H]1C(=O)N[C@@H](CO)C(N)=O` [Example 341] (H-[dY][Aib]EGTFTSDYSI[αMeL]LDEK([AEEA-AEEA-γGlu-C20 diacid])AQ[Aib]AFIEYLIAGGPSSGAPPPS-NH2; N-terminus assumed), the EC50 was determined as 0.373 nM in test [1], 0.0188 µM in test [2], 0.496 nM in test [4] and 0.238 nM in test [6]. Also, the “hGLP1R B-Arrestin2 % Top” value in test [2] came to 21.9%. Moreover, the inhibition constant Ki is 39.7 nM in test [3], 6.49 nM in test [5] and 0.0559 nM in test [7].

As for `CC[C@H](C)[C@H](NC(=O)[C@H](CC(C)C)NC(=O)[C@H](Cc1ccc(O)cc1)NC(=O)[C@H](CCC(=O)O)NC(=O)[C@@H](NC(=O)[C@H](Cc1ccccc1)NC(=O)[C@H](CCC(=O)O)NC(=O)C(C)(C)NC(=O)[C@H](CCC(N)=O)NC(=O)[C@H](C)NC(=O)[C@H](CCCCNC(=O)COCCOCCNC(=O)COCCOCCNC(=O)CC[C@H](NC(=O)CCCCCCCCCCCCCCCCCCC(=O)O)C(=O)O)NC(=O)[C@H](CCC(=O)O)NC(=O)[C@H](CC(=O)O)NC(=O)[C@H](CC(C)C)NC(=O)[C@](C)(CC(C)C)NC(=O)[C@@H](NC(=O)[C@H](CO)NC(=O)[C@H](Cc1ccc(O)cc1)NC(=O)[C@H](CC(=O)O)NC(=O)[C@H](CO)NC(=O)[C@@H](NC(=O)[C@H](Cc1ccccc1)NC(=O)[C@@H](NC(=O)CNC(=O)[C@H](CCC(=O)O)NC(=O)C(C)(C)NC(=O)[C@H](N)Cc1ccc(O)cc1)[C@@H](C)O)[C@@H](C)O)[C@@H](C)CC)[C@@H](C)CC)C(=O)N[C@@H](C)C(=O)NCC(=O)NCC(=O)N1CCC[C@H]1C(=O)N[C@@H](CO)C(=O)N[C@@H](CO)C(=O)NCC(=O)N[C@@H](C)C(=O)N1CCC[C@H]1C(=O)N1CCC[C@H]1C(=O)N1CCC[C@H]1C(=O)N[C@@H](CO)C(N)=O` [Example 342] (H-[dY][Aib]EGTFTSDYSI[αMeL]LDEK([AEEA-AEEA-γGlu-C20 diacid])AQ[Aib]EFIEYLIAGGPSSGAPPPS-NH2; N-terminus assumed), the EC50 in test [1] was 0.127 nM; in test [2], 0.035 µM; in test [4], 0.414 nM; in test [6] it was 0.159 nM. In test [2], the “hGLP1R B-Arrestin2 % Top” value worked out at 20.7%. The figures for the inhibition constant (Ki) in test [3], in test [5] and in test [7] were greater than 1000 nM, 15.4 nM and 0.129 nM, respectively.

Turning to `CC[C@H](C)[C@H](NC(=O)[C@H](CC(C)C)NC(=O)[C@H](Cc1ccc(O)cc1)NC(=O)[C@@H](CCC(=O)O)NC(=O)[C@@H](NC(=O)[C@H](Cc1ccccc1)NC(=O)[C@H](C)NC(=O)C(C)(C)NC(=O)[C@H](CCC(N)=O)NC(=O)[C@H](C)NC(=O)[C@H](CCCCNC(=O)COCCOCCNC(=O)COCCOCCNC(=O)CC[C@H](NC(=O)CCCCCCCCCCCCCCCCCCC(=O)O)C(=O)O)NC(=O)[C@H](CCC(=O)O)NC(=O)[C@H](CC(=O)O)NC(=O)[C@H](CC(C)C)NC(=O)[C@](C)(CC(C)C)NC(=O)[C@@H](NC(=O)[C@H](CO)NC(=O)[C@H](Cc1ccc(O)cc1)NC(=O)[C@H](CC(=O)O)NC(=O)[C@H](CO)NC(=O)[C@@H](NC(=O)[C@H](Cc1ccccc1)NC(=O)[C@@H](NC(=O)CNC(=O)[C@H](CCC(=O)O)NC(=O)C(C)(C)NC(=O)[C@@H](N)Cc1ccc(O)cc1)[C@@H](C)O)[C@@H](C)O)[C@@H](C)CC)[C@@H](C)CC)C(=O)N[C@@H](C)C(=O)NCC(=O)NCC(=O)N1CCC[C@H]1C(=O)N[C@@H](CO)C(=O)N[C@@H](CO)C(=O)NCC(=O)N[C@@H](C)C(=O)N1CCC[C@H]1C(=O)N1CCC[C@H]1C(=O)N1CCC[C@H]1C(=O)N[C@@H](CO)C(N)=O` [Example 343] (H-Y[Aib]EGTFTSDYSI[αMeL]LDEK([AEEA-AEEA-γGlu-C20 diacid])AQ[Aib]AFI[dE]YLIAGGPSSGAPPPS-NH2), the EC50 in test [1] is 0.124 nM; in test [2], 0.0455 µM; in test [4] it was 0.522 nM; in test [6], 0.0422 nM. Further, the “hGLP1R B-Arrestin2 % Top” value in test [2] worked out at 41.4%. For the same compound, the Ki in test [3] was greater than 1070 nM; in test [5] it was 13.3 nM; in test [7] it was 0.0374 nM.

`CC[C@H](C)[C@H](NC(=O)[C@H](CC(C)C)NC(=O)[C@H](Cc1ccc(O)cc1)NC(=O)[C@H](CCC(=O)O)NC(=O)[C@@H](NC(=O)[C@H](Cc1ccccc1)NC(=O)[C@H](CC(=O)O)NC(=O)C(C)(C)NC(=O)[C@H](CCC(N)=O)NC(=O)[C@H](C)NC(=O)[C@H](CCCCNC(=O)COCCOCCNC(=O)COCCOCCNC(=O)CC[C@H](NC(=O)CCCCCCCCCCCCCCCCCCC(=O)O)C(=O)O)NC(=O)[C@H](CCC(=O)O)NC(=O)[C@H](CC(=O)O)NC(=O)[C@H](CC(C)C)NC(=O)[C@](C)(CC(C)C)NC(=O)[C@@H](NC(=O)[C@H](CO)NC(=O)[C@H](Cc1ccc(O)cc1)NC(=O)[C@H](CC(=O)O)NC(=O)[C@H](CO)NC(=O)[C@@H](NC(=O)[C@H](Cc1ccccc1)NC(=O)[C@@H](NC(=O)CNC(=O)[C@H](CCC(=O)O)NC(=O)C(C)(C)NC(=O)[C@@H](N)Cc1ccc(O)cc1)[C@@H](C)O)[C@@H](C)O)[C@@H](C)CC)[C@@H](C)CC)C(=O)N[C@@H](C)C(=O)NCC(=O)NCC(=O)N1CCC[C@H]1C(=O)N[C@@H](CO)C(=O)N[C@@H](CO)C(=O)NCC(=O)N[C@@H](C)C(=O)N1CCC[C@H]1C(=O)N1CCC[C@H]1C(=O)N1CCC[C@H]1C(=O)N[C@@H](CO)C(N)=O` [Example 344] (H-Y[Aib]EGTFTSDYSI[αMeL]LDEK([AEEA-AEEA-γGlu-C20 diacid])AQ[Aib]DFIEYLIAGGPSSGAPPPS-NH2): the EC50 stood at 0.044 nM in test [1], 0.0343 µM in test [2], 0.423 nM in test [4] and 0.0433 nM in test [6]. Also, in test [2], the “hGLP1R B-Arrestin2 % Top” value was determined as 46%. Further, the Ki in test [3] is greater than 1080 nM; in test [5], 14.8 nM; in test [7], 0.0507 nM.

Broadly, the EC50 is the midpoint of the concentration-response curve. The term Ki denotes a dissociation constant, usually derived from enzyme kinetics or from competition with a known ligand.
